Results: patent publication US20150126465A1, “PROCESS FOR PRODUCING DERIVATIVES OF PYROSTEGIA VENUSTA, DERIVATIVES OF PYROSTEGIA VENUSTA, PHARMACEUTICAL COMPOSITIONS AND ITS USES” (priority 2011, published 2015)
Converted amounts (≈) assume the structure as drawn. Where two headings read alike, the source gives them in different places.

Assays:
Type in all cases: cell-based
[1] = test system: Candida parapsilosis ATCC 22019; assay: MIC/CFM by microdilution (CLSI M27-A2)
[2] = test system: Trichophyton rubrum ATCC MYA-3108; assay: MIC by microdilution, filamentous fungi (CLSI M38-A); conditions: Table 11, Trichophyton rubrum ATCC MYA-3108
[3] = test system: Candida guilhermondii USP; assay: MIC/CFM by microdilution (CLSI M27-A2)
[4] = test system: Candida tropicalis USP B3; assay: MIC by microdilution (CLSI M27-A2)
[5] = test system: Candida parapsilosis USP 1933; assay: MIC/CFM by microdilution (CLSI M27-A2)
Candida krusei ATCC 6258 [6] = assay: MIC/CFM by microdilution (CLSI M27-A2)
[7] = test system: Candida albicans USP 1565; assay: MIC by microdilution (CLSI M27-A2)
[8] = test system: Candida tropicalis USP 1658; assay: MIC by microdilution (CLSI M27-A2)
Candida krusei USP 2223 = assay: MIC by microdilution (CLSI M27-A2)
[9] = test system: Candida tropicalis USP B3; assay: Diffusion in Agar, halo of inhibition; set-up: unit not given here; conditions: 20 μL per hole, 48 hours at 37° C., controls 80 μg · mL^−1
Method: (§1) Cultures of yeasts described below were inoculated in Agar-Sabouraud Dextrose medium and inoculated for 24 hours, at 35° C. Cultures of Candida sp. were prepared and standardized in […] saline solution at 0.85%. For inoculum standardization a spectrophotometer equipment was used with wavelength at 530 nm and absorbance adjustment between 0.130 and 0.150, having as white the saline solution free of inoculum or any other contaminant, corresponding to concentrations of 10^6 CFU/mL. In Petri plates (150×15 mm), were distributed RPMI medium with 0.8% Agar. To these plates, it was added 1 mL of the microorganism suspension in the concentration of 10^6 CFU/mL. After inundation, the suspension excess was removed with the aid of a pipette. With the plate surface already dry, hole of approximately 6.0 mm were made, adding to each hole 20 μL of the samples and control. The plates were then incubated for 48 hours at 37° C., when halo of inhibitions were measured.

Candida krusei ATCC 6258 [10] = assay: Diffusion in Agar, halo of inhibition; set-up: unit not given here; conditions: 20 μL per hole, 48 hours at 37° C., controls 80 μg · mL^−1
Method: as §1

[11] = test system: Candida guilhermondii USP; assay: Diffusion in Agar, halo of inhibition; set-up: unit not given here; conditions: Candida guilhemondii USP; 20 μL per hole, 48 hours at 37° C.; controls 80 μg · mL^−1
Method: as §1

[12] = test system: Candida albicans ATCC 10231; assay: Diffusion in Agar, halo of inhibition; set-up: unit not given here; conditions: 20 μL per hole, 48 hours at 37° C., controls 80 μg · mL^−1
Method: as §1

[13] = test system: Candida parapsilosis ATCC 22019; assay: Diffusion in Agar, halo of inhibition; set-up: unit not given here; conditions: 20 μL per hole, 48 hours at 37° C., controls 80 μg · mL^−1
Method: as §1

[14] = test system: Candida albicans OF-M7-19; assay: MIC/CFM by microdilution (CLSI M27-A2)
Method: (§2) Pure substances termed P1 and P2 previously dissolved in 20% DMSO, were diluted in RPMI medium, with final concentrations of 96 μg.mL-1. […] The same was also tested individually, diluted in RPMI medium, with initial concentration of 1 μL.mL-1. […] Cultures of Candida sp. were prepared and standardized in […] saline solution at 0.85%. For inoculums standardization, a spectrophotometer equipment was used, with wavelength at 530 nm and absorbance adjustment between 0.130 and 0.150, having as white the saline solution free of inoculum or any other contaminant, corresponding to concentrations of 10^6 CFU/mL. In this condition the inoculum “mother” was diluted 50 times and from this inoculum “child” the dilution was performed 20 times to obtain a standard inoculum in 10^3 cells per well. […] To aid in the growth view, were added to the wells dye 50 μL 2,3,5-triphenyltetrazolium chloride (TTC) at 5 mg.mL “1, being performed the readings after 4 hours of incubation. Prior to the addition of dye, aliquots of 96-well plate were transferred to Petri with Agar-Sabouraud Dextrose to determine the Minimum Fungicidal Concentration. Plates were incubated for 24 hours at 35° C.

[15] = test system: Candida albicans OF-M3-20; assay: MIC/CFM by microdilution (CLSI M27-A2)
Method: as §2

Candida albicans USP 1 = assay: MIC/CFM by microdilution (CLSI M27-A2)
Method: as §2

[16] = test system: Phomopsis longicolla (soy isolate); assay: MIC by microdilution, filamentous fungi (CLSI M38-A); conditions: Table 13, Phomopsis longicolla- soy, 7 days, 28° C.
Method: (§3) Pure substances termed P1 and P2 previously dissolved in 20% DMSO, were diluted in RPMI medium, with final concentrations of 96 μg.mL-1. […] Cultures of filamentous fungi described below were inoculated in Agar-Batata Dextrose medium and inoculated for 7 days, at 28° C. Colonies of cultures inoculated for 7 days in an oven at 28° C. were shrouded with 0.85% saline solution, scraped and then transferred to conical tubes. After resting for 5 minutes, the supernatant was transferred to new conical tubes for subsequent quantification in spectrophotometer, at 530 nm, with the transmittance adjustment of 80-82% for A. niger and 70% for other microorganisms. After adjustment, there was a 1:50 dilution in RPM. The determination of Minimum Inhibitory Concentration was performed after 7 days, at 28° C. After the incubation period, aliquots of 96-well plates were transferred to Petri plates with Potato Dextrose Agar, to determine the Minimum Fungicidal Concentration. Plates were inoculated for more 7 days, at 28° C.

[17] = test system: Microsporum canis ATCC 32903; assay: as above; conditions: Table 13, Microsporum canis ATCC 32903, 7 days, 28° C.
Method: as §3

[18] = test system: Trichophyton menthagrophyton ATCC 9533; assay: as above; conditions: Table 13, Trichophyton menthagrophyton ATCC 9533, 7 days, 28° C.
Method: as §3

C. Albicans USP 2 = assay: MIC/CFM against Candida sp. strains; conditions: Table 14, C. Albicans USP 2
[19] = test system: Candida albicans ATCC 10231; assay: MIC/CFM by microdilution (CLSI M27-A2); conditions: Candida albicans, ATCC10231, read-out: MIC
Candida glabrata ATCC = assay: MIC/CFM against Candida sp. strains; conditions: Nakaseomyces glabratus; Table 14, Candida glabrata ATCC
[20] = Lodderomyces parapsilosis, ATCC22019, Table 14, C. parapsilosis ATCC 22019, read-out: MIC
[21] = Table 14, Candida guilhermondi USPATCC, read-out: MIC
[22] = Candida tropicalis, USPB3, Table 14, C. Tropicalis UPS B3, read-out: MIC
[23] = Lodderomyces parapsilosis, USP1933, Table 14, C. parapsilosis USP 1933 ATCC, read-out: MIC
[24] = Pichia kudriavzevii, ATCC6258, Table 14, C. krusei ATCC, read-out: MIC
[25] = Table 14, C. Albicans ATCC 10231
[26] = Pichia kudriavzevii, USP2223, Table 14, C. krusei USP 2223, read-out: MIC
[27] = Candida albicans, OFM719, Table 14, C. Albicans OF M7-19, read-out: MIC
[28] = Candida albicans, OFM320, Table 14, C. Albicans OF M3-20, read-out: MIC
[29] = Candida albicans, USP1, Table 14, C. Albicans USP 1, read-out: MIC

Nistatina
MIC ([1]; Table 12, C. parapsilosis ATCC 22019, 48 h, 35° C.): 6.25 µg/mL
MIC [2]: 3.125 µg/mL
MIC ([3]; Table 11, C. guilhermondii USP): 3.125 µg/mL
MIC ([3]; Table 12, C. guilhermondii USP, 48 h, 35° C.): 6.25 µg/mL
MIC ([4]; Table 11, C. Tropicalis USP B3): 6.25 µg/mL
MIC ([5]; Table 11, C. parapsilosis USP 1933): 6.25 µg/mL
MIC ([5]; Table 12, C. parapsilosis USP 1933, 48 h, 35° C.): 12.5 µg/mL
MIC (Candida krusei ATCC 6258 [6]; Table 11, C. krusei ATCC 6258): 6.25 µg/mL
MIC (Candida krusei ATCC 6258 [6]; Table 12, C. krusei ATCC 6258, 48 h, 35° C.): 6.25 µg/mL
MIC ([7]; Table 11, C. Albicans USP 1565): 6.25 µg/mL
MIC ([7]; Table 12, C. albicans USP 1565, 48 h, 35° C.): 6.25 µg/mL
MIC ([8]; Table 11, C. Tropicalis USP 1658): 6.25 µg/mL
MIC ([8]; Table 12, C. tropicalis USP 1658, 48 h, 35° C.): 6.125 µg/mL
MIC (Candida krusei USP 2223; Table 11, C. krusei ATCC 2223): 6.25 µg/mL
MIC (Candida krusei USP 2223; Table 12, C. krusei USP 2223, 48 h, 35° C.): 6.25 µg/mL
Halo of inhibition [9]: 0
Halo of inhibition (Candida krusei ATCC 6258 [10]): 1.2
Halo of inhibition [11]: 1.1
Halo of inhibition [12]: 1.5
Halo of inhibition [13]: 1.6
MIC ([14]; Table 12, C. albicans OF M7-19, 48 h, 35° C.): 12.5 µg/mL
MIC ([15]; Table 12, C. albicans OF M3-20, 48 h, 35° C.): 12.5 µg/mL
MIC (Candida albicans USP 1; Table 12, C. albicans USP 1, 48 h, 35° C.): 6.25 µg/mL
MIC [16]: 3.125 µg/mL
MIC [17]: 12.5 µg/mL
MIC [18]: 12.5 µg/mL

C[C@@H]1O[C@@H](O[C@@H]2[C@@H](O)[C@H](OCCc3ccc(O)c(O)c3)O[C@H](CO)[C@H]2OC(=O)/C=C/c2ccc(O)c(O)c2)[C@H](O)[C@H](O)[C@H]1O [Fraction P2, verbascoside]
MIC ([1]; Lodderomyces parapsilosis, ATCC22019, Table 12, C. parapsilosis ATCC 22019, 48 h, 35° C., read-out: MIC): 0.375 µg/mL (≈ 0.6 µM)
MIC [1, 20]: 1.5 µg/mL (≈ 2.4 µM)
MIC (C. Albicans USP 2): 1.5 µg/mL (≈ 2.4 µM)
MIC ([3]; Candida, Table 12, C. guilhermondii USP, 48 h, 35° C., read-out: MIC): 0.375 µg/mL (≈ 0.6 µM)
MIC [3, 21]: 0.75 µg/mL (≈ 1.2 µM)
MIC [4, 22]: 1.5 µg/mL (≈ 2.4 µM)
MIC ([5]; Lodderomyces parapsilosis, USP1933, Table 12, C. parapsilosis USP 1933, 48 h, 35° C., read-out: MIC): 0.75 µg/mL (≈ 1.2 µM)
MIC [5, 23]: 1.5 µg/mL (≈ 2.4 µM)
MIC (Candida krusei ATCC 6258 [6]; Pichia kudriavzevii, ATCC6258, Table 12, C. krusei ATCC 6258, 48 h, 35° C., read-out: MIC): 0.375 µg/mL (≈ 0.6 µM)
MIC (Candida krusei ATCC 6258 [6]; [24]): 1.5 µg/mL (≈ 2.4 µM)
MIC ([19]; Table 12, C. albicans ATCC 10231, 48 h, 35° C.): 3 µg/mL (≈ 4.8 µM)
MIC [19, 25]: 1.5 µg/mL (≈ 2.4 µM)
MIC ([7]; Candida albicans, USP1565, Table 12, C. albicans USP 1565, 48 h, 35° C., read-out: MIC): 0.375 µg/mL (≈ 0.6 µM)
MIC (Candida glabrata ATCC): 0.75 µg/mL (≈ 1.2 µM)
MIC ([8]; Candida tropicalis, USP1658, Table 12, C. tropicalis USP 1658, 48 h, 35° C., read-out: MIC): 1.5 µg/mL (≈ 2.4 µM)
MIC (Candida krusei USP 2223; Pichia kudriavzevii, USP2223, Table 12, C. krusei USP 2223, 48 h, 35° C., read-out: MIC): 0.75 µg/mL (≈ 1.2 µM)
MIC (Candida krusei USP 2223; [26]): 1.5 µg/mL (≈ 2.4 µM)
MIC ([14]; Candida albicans, OFM719, Table 12, C. albicans OF M7-19, 48 h, 35° C., read-out: MIC): 0.375 µg/mL (≈ 0.6 µM)
MIC [14, 27]: 0.75 µg/mL (≈ 1.2 µM)
MIC ([15]; Candida albicans, OFM320, Table 12, C. albicans OF M3-20, 48 h, 35° C., read-out: MIC): 0.375 µg/mL (≈ 0.6 µM)
MIC [15, 28]: 1.5 µg/mL (≈ 2.4 µM)
MIC (Candida albicans USP 1; Candida albicans, USP1, Table 12, C. albicans USP 1, 48 h, 35° C., read-out: MIC): 0.375 µg/mL (≈ 0.6 µM)
MIC (Candida albicans USP 1; [29]): 1.5 µg/mL (≈ 2.4 µM)
MIC ([16]; Diaporthe longicolla, 168 h, read-out: MIC): 16 µg/mL (≈ 25.6 µM)
MIC ([17]; ATCC32903, 168 h, read-out: MIC): 12 µg/mL (≈ 19.2 µM)
MIC ([18]; ATCC9533, 168 h, read-out: MIC): 48 µg/mL (≈ 76.9 µM)

CC1OC(OC2C(O)C(COC(=O)/C=C/c3ccc(O)c(O)c3)OC(OCCc3ccc(O)c(O)c3)C2O)C(O)C(O)C1O (stereo not drawn) [Fraction P3, iso-verbascoside]
MIC [1, 20]: 1.5 µg/mL (≈ 2.4 µM)
MIC (C. Albicans USP 2): 3 µg/mL (≈ 4.8 µM)
MFC ([3]; Table 14, Candida guilhermondi USPATCC, read-out: CFM (Minimum Fungicidal Concentration)): 6 µg/mL (≈ 9.61 µM)
MIC [3, 21]: 1.5 µg/mL (≈ 2.4 µM)
MIC [4, 22]: 6 µg/mL (≈ 9.61 µM)
MIC [5, 23]: 3 µg/mL (≈ 4.8 µM)
MFC (Candida krusei ATCC 6258 [6]; Pichia kudriavzevii, ATCC6258, Table 14, C. krusei ATCC, read-out: CFM (Minimum Fungicidal Concentration)): 12 µg/mL (≈ 19.2 µM)
MIC (Candida krusei ATCC 6258 [6]; [24]): 1.5 µg/mL (≈ 2.4 µM)
MIC [19, 25]: 3 µg/mL (≈ 4.8 µM)
MIC (Candida glabrata ATCC): 0.375 µg/mL (≈ 0.6 µM)
MIC (Candida krusei USP 2223; [26]): 1.5 µg/mL (≈ 2.4 µM)
MIC [14, 27]: 0.75 µg/mL (≈ 1.2 µM)
MIC [15, 28]: 3 µg/mL (≈ 4.8 µM)
MIC (Candida albicans USP 1; [29]): 1.5 µg/mL (≈ 2.4 µM)
